Reference: PubChem BioAssay (NCI)
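Where inhibition never reached the appropriate level, the endpoint shown equals the highest concentration tested. Otherwise, values were interpolated linearly from a five-concentration, 48-hour dose response in 96-well plates. TGI is the concentration that stops growth completely.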

Experiments:
Assay in all cases: NCI-60 cell line screen, 48 h
NCI-H460 lung = tested on: NCI-H460 lung
786-0 renal = tested on: 786-0 renal
NCI-H522 lung = tested on: NCI-H522 lung
M14 melanoma = tested on: M14 melanoma
SNB-78 CNS = tested on: SNB-78 CNS
RXF 393 renal = tested on: RXF 393 renal
HCC-2998 colon = tested on: HCC-2998 colon
HCT-116 colon = tested on: HCT-116 colon
A498 renal = tested on: A498 renal
SW-620 colon = tested on: SW-620 colon
XF 498 CNS = tested on: XF 498 CNS
SK-MEL-28 melanoma = tested on: SK-MEL-28 melanoma
SR leukemia = tested on: SR leukemia
NCI-H23 lung = tested on: NCI-H23 lung
HCT-15 colon = tested on: HCT-15 colon
U251 CNS = tested on: U251 CNS
HOP-92 NSCLC = tested on: HOP-92 NSCLC
UACC-62 melanoma = tested on: UACC-62 melanoma
TK-10 renal = tested on: TK-10 renal
M19-MEL melanoma = tested on: M19-MEL melanoma
MALME-3M melanoma = tested on: MALME-3M melanoma
CAKI-1 renal = tested on: CAKI-1 renal
HL-60(TB) leukemia = tested on: HL-60(TB) leukemia
SK-OV-3 ovarian = tested on: SK-OV-3 ovarian
LXFL 529 NSCLC = tested on: LXFL 529 NSCLC
OVCAR-8 ovarian = tested on: OVCAR-8 ovarian
UACC-257 melanoma = tested on: UACC-257 melanoma
EKVX NSCLC = tested on: EKVX NSCLC
HOP-62 NSCLC = tested on: HOP-62 NSCLC
SN12C renal = tested on: SN12C renal
SK-MEL-5 melanoma = tested on: SK-MEL-5 melanoma
A549 NSCLC = tested on: A549 NSCLC
OVCAR-4 ovarian = tested on: OVCAR-4 ovarian
SNB-75 CNS = tested on: SNB-75 CNS
K-562 leukemia = tested on: K-562 leukemia
HT29 colon = tested on: HT29 colon
HOP-18 NSCLC = tested on: HOP-18 NSCLC
SF-268 CNS = tested on: SF-268 CNS
ACHN renal = tested on: ACHN renal
DLD-1 colon = tested on: DLD-1 colon
NCI-H226 lung = tested on: NCI-H226 lung
IGROV1 ovarian = tested on: IGROV1 ovarian
CCRF-CEM leukemia = tested on: CCRF-CEM leukemia
LOX IMVI melanoma = tested on: LOX IMVI melanoma
SF-539 CNS = tested on: SF-539 CNS
DMS 114 small cell lung = tested on: DMS 114 small cell lung
SF-295 CNS = tested on: SF-295 CNS
COLO 205 colon = tested on: COLO 205 colon
RPMI-8226 leukemia = tested on: RPMI-8226 leukemia
UO-31 renal = tested on: UO-31 renal
SNB-19 CNS = tested on: SNB-19 CNS
DMS 273 small cell lung = tested on: DMS 273 small cell lung
OVCAR-5 ovarian = tested on: OVCAR-5 ovarian
MOLT-4 leukemia = tested on: MOLT-4 leukemia
KM12 colon = tested on: KM12 colon
SK-MEL-2 melanoma = tested on: SK-MEL-2 melanoma
KM20L2 colon = tested on: KM20L2 colon
OVCAR-3 ovarian = tested on: OVCAR-3 ovarian

CCOC(=O)C(/C(=N\NC(=O)OC)C(=O)Nc1cc(OC)ccc1OC)c1cnc2ccccc2n1 (stereo unspecified)
TGI (NCI-H460 lung): > 100 µM
TGI (786-0 renal): > 100 µM
TGI (NCI-H522 lung): > 100 µM
TGI (M14 melanoma): > 100 µM
TGI (SNB-78 CNS): > 100 µM
TGI (RXF 393 renal): > 100 µM
TGI (HCC-2998 colon): > 100 µM
TGI (HCT-116 colon): > 100 µM
TGI (A498 renal): > 100 µM
TGI (SW-620 colon): > 100 µM
TGI (XF 498 CNS): > 100 µM
TGI (SK-MEL-28 melanoma): > 100 µM
TGI (SR leukemia): > 100 µM
TGI (NCI-H23 lung): > 100 µM
TGI (HCT-15 colon): > 100 µM
TGI (U251 CNS): > 100 µM
TGI (HOP-92 NSCLC): > 100 µM
TGI (UACC-62 melanoma): > 100 µM
TGI (TK-10 renal): > 100 µM
TGI (M19-MEL melanoma): > 100 µM
TGI (MALME-3M melanoma): > 100 µM
TGI (CAKI-1 renal): > 100 µM
TGI (HL-60(TB) leukemia): > 100 µM
TGI (SK-OV-3 ovarian): > 100 µM
TGI (LXFL 529 NSCLC): > 100 µM
TGI (OVCAR-8 ovarian): > 100 µM
TGI (UACC-257 melanoma): > 100 µM
TGI (EKVX NSCLC): > 100 µM
TGI (HOP-62 NSCLC): > 100 µM
TGI (SN12C renal): > 100 µM
TGI (SK-MEL-5 melanoma): > 100 µM
TGI (A549 NSCLC): > 100 µM
TGI (OVCAR-4 ovarian): > 100 µM
TGI (SNB-75 CNS): > 100 µM
TGI (K-562 leukemia): > 100 µM
TGI (HT29 colon): > 100 µM
TGI (HOP-18 NSCLC): > 100 µM
TGI (SF-268 CNS): > 100 µM
TGI (ACHN renal): > 100 µM
TGI (DLD-1 colon): > 100 µM
TGI (NCI-H226 lung): > 100 µM
TGI (IGROV1 ovarian): > 100 µM
TGI (CCRF-CEM leukemia): > 100 µM
TGI (LOX IMVI melanoma): > 100 µM
TGI (SF-539 CNS): > 100 µM
TGI (DMS 114 small cell lung): > 100 µM
TGI (SF-295 CNS): > 100 µM
TGI (COLO 205 colon): > 100 µM
TGI (RPMI-8226 leukemia): > 100 µM
TGI (UO-31 renal): > 100 µM

Clc1ccc(OCc2nnc3n2N=C(c2ccc(Br)cc2)CS3)cc1
TGI (NCI-H460 lung): 82 µM
TGI (786-0 renal): > 100 µM
TGI (SNB-78 CNS): 81.1 µM
TGI (RXF 393 renal): 61.8 µM
TGI (HCC-2998 colon): > 100 µM
TGI (HCT-116 colon): > 100 µM
TGI (A498 renal): 25.7 µM
TGI (SNB-19 CNS): 75.1 µM
TGI (DMS 273 small cell lung): > 100 µM
TGI (SW-620 colon): > 100 µM
TGI (XF 498 CNS): 21.4 µM
TGI (OVCAR-5 ovarian): > 100 µM
TGI (SK-MEL-28 melanoma): > 100 µM
TGI (SR leukemia): > 100 µM
TGI (NCI-H23 lung): > 100 µM
TGI (HCT-15 colon): > 100 µM
TGI (U251 CNS): > 100 µM
TGI (HOP-92 NSCLC): 41 µM
TGI (UACC-62 melanoma): > 100 µM
TGI (TK-10 renal): 35.6 µM
TGI (M19-MEL melanoma): > 100 µM
TGI (MALME-3M melanoma): > 100 µM
TGI (HL-60(TB) leukemia): > 100 µM
TGI (SK-OV-3 ovarian): 34.6 µM
TGI (LXFL 529 NSCLC): 70.3 µM
TGI (OVCAR-8 ovarian): > 100 µM
TGI (UACC-257 melanoma): 83.3 µM
TGI (SN12C renal): > 100 µM
TGI (A549 NSCLC): > 100 µM
TGI (K-562 leukemia): > 100 µM
TGI (HT29 colon): > 100 µM
TGI (MOLT-4 leukemia): > 100 µM
TGI (ACHN renal): > 100 µM
TGI (NCI-H226 lung): > 100 µM
TGI (CCRF-CEM leukemia): > 100 µM
TGI (KM12 colon): > 100 µM
TGI (LOX IMVI melanoma): 46 µM
TGI (SF-539 CNS): 24.5 µM
TGI (DMS 114 small cell lung): 54 µM
TGI (SF-295 CNS): 37.7 µM
TGI (RPMI-8226 leukemia): > 100 µM
TGI (UO-31 renal): 19.6 µM
TGI (SK-MEL-2 melanoma): 66.9 µM

CC12C(=C(C#N)C(=N)N1c1ccc(Cl)c(Cl)c1)C=C(O)CC2SCCS(=O)(=O)O (stereo unspecified)
TGI (786-0 renal): > 100 µM
TGI (NCI-H522 lung): > 100 µM
TGI (SNB-78 CNS): > 100 µM
TGI (RXF 393 renal): 94.7 µM
TGI (HCC-2998 colon): > 100 µM
TGI (HCT-116 colon): > 100 µM
TGI (A498 renal): > 100 µM
TGI (SNB-19 CNS): > 100 µM
TGI (DMS 273 small cell lung): > 100 µM
TGI (SW-620 colon): > 100 µM
TGI (KM20L2 colon): > 100 µM
TGI (SK-MEL-28 melanoma): > 100 µM
TGI (SR leukemia): > 100 µM
TGI (NCI-H23 lung): > 100 µM
TGI (HCT-15 colon): > 100 µM
TGI (U251 CNS): > 100 µM
TGI (HOP-92 NSCLC): > 100 µM
TGI (UACC-62 melanoma): > 100 µM
TGI (TK-10 renal): > 100 µM
TGI (M19-MEL melanoma): > 100 µM
TGI (CAKI-1 renal): > 100 µM
TGI (HL-60(TB) leukemia): > 100 µM
TGI (SK-OV-3 ovarian): > 100 µM
TGI (LXFL 529 NSCLC): > 100 µM
TGI (OVCAR-8 ovarian): > 100 µM
TGI (UACC-257 melanoma): > 100 µM
TGI (EKVX NSCLC): > 100 µM
TGI (HOP-62 NSCLC): > 100 µM
TGI (SN12C renal): > 100 µM
TGI (SK-MEL-5 melanoma): > 100 µM
TGI (A549 NSCLC): > 100 µM
TGI (OVCAR-3 ovarian): > 100 µM
TGI (OVCAR-4 ovarian): > 100 µM
TGI (SNB-75 CNS): > 100 µM
TGI (K-562 leukemia): > 100 µM
TGI (HT29 colon): > 100 µM
TGI (SF-268 CNS): > 100 µM
TGI (MOLT-4 leukemia): > 100 µM
TGI (ACHN renal): > 100 µM
TGI (DLD-1 colon): > 100 µM
TGI (NCI-H226 lung): > 100 µM
TGI (IGROV1 ovarian): > 100 µM
TGI (CCRF-CEM leukemia): > 100 µM
TGI (KM12 colon): > 100 µM
TGI (LOX IMVI melanoma): > 100 µM
TGI (SF-539 CNS): > 100 µM
TGI (DMS 114 small cell lung): > 100 µM
TGI (SF-295 CNS): > 100 µM
TGI (COLO 205 colon): > 100 µM
TGI (RPMI-8226 leukemia): > 100 µM
TGI (UO-31 renal): > 100 µM
TGI (SK-MEL-2 melanoma): > 100 µM

CC(NC1CCCC[C@H]1O)c1ccccc1 (stereo partly specified)
TGI (NCI-H460 lung): > 100 µM
TGI (786-0 renal): > 100 µM
TGI (M14 melanoma): > 100 µM
TGI (SNB-78 CNS): > 100 µM
TGI (HCC-2998 colon): > 100 µM
TGI (HCT-116 colon): > 100 µM
TGI (SNB-19 CNS): > 100 µM
TGI (SW-620 colon): > 100 µM
TGI (KM20L2 colon): > 100 µM
TGI (OVCAR-5 ovarian): > 100 µM
TGI (SK-MEL-28 melanoma): > 100 µM
TGI (U251 CNS): > 100 µM
TGI (HOP-92 NSCLC): > 100 µM
TGI (UACC-62 melanoma): > 100 µM
TGI (M19-MEL melanoma): > 100 µM
TGI (MALME-3M melanoma): > 100 µM
TGI (CAKI-1 renal): > 100 µM
TGI (SK-OV-3 ovarian): > 100 µM
TGI (LXFL 529 NSCLC): > 100 µM
TGI (UACC-257 melanoma): > 100 µM
TGI (HOP-62 NSCLC): > 100 µM
TGI (SK-MEL-5 melanoma): > 100 µM
TGI (A549 NSCLC): > 100 µM
TGI (OVCAR-4 ovarian): > 100 µM
TGI (SNB-75 CNS): > 100 µM
TGI (HT29 colon): > 100 µM
TGI (HOP-18 NSCLC): > 100 µM
TGI (MOLT-4 leukemia): > 100 µM
TGI (ACHN renal): > 100 µM
TGI (DLD-1 colon): > 100 µM
TGI (NCI-H226 lung): > 100 µM
TGI (IGROV1 ovarian): > 100 µM
TGI (COLO 205 colon): > 100 µM
TGI (RPMI-8226 leukemia): > 100 µM
TGI (UO-31 renal): > 100 µM
TGI (SK-MEL-2 melanoma): > 100 µM
